Laboratory results published in US20230339937A1, “CONDENSED RING COMPOUNDS THAT INHIBIT H-PGDS” (SATO PHARMACEUTICAL CO., LTD., priority 2020, published 2023).

Target: T1, Recombinant human H-PGDS (Homo sapiens, UniProt O60760)
T1 construct: made in house; host or cells: E. coli
Assay: H-PGDS inhibitory activity (prostaglandin D2 production from prostaglandin H2, measured by LC-MS/MS)
Assay type: biochemical
Settings: recombinant human H-PGDS 1.0 nM expressed in E. coli; prostaglandin H2 25 μM; preincubated 15 minutes on ice, reacted on ice for 1 minute; concentration that inhibits prostaglandin D2 production by 50%
Method in brief: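 PGD2 formed from 25 µM prostaglandin H2 during a 1-min on-ice reaction was measured by LC-MS/MS after an FeCl2/citric acid stop. The enzyme was 1.0 nM E. coli-expressed human H-PGDS in Tris-HCl pH 8.0 buffer with MgCl2, reduced glutathione and γ-globulin, preincubated with compound for 15 min on ice. Production was normalised to DMSO controls minus the no-enzyme background.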

T1 sequence (O60760 whole entry): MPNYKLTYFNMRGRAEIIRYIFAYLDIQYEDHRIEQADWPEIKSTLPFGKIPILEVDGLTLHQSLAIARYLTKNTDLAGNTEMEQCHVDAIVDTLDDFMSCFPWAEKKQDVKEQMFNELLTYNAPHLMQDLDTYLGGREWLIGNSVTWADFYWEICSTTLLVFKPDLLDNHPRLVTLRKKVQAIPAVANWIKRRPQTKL

Compound | IC50 [nM]
Cc1ccc(N2CCC(NC(=O)c3ccc(-c4nccc5occc45)cc3)CC2)nc1 [Example 151, 4-(furo[3,2-c]pyridin-4-yl)-N-[1-(5-methylpyridin-2-yl)piperidin-4-yl]benzamide] | 1.4
Cc1cccc(N2CCC(NC(=O)c3ccc(-c4nccc5occc45)cc3)CC2)n1 [Example 152, 4-(furo[3,2-c]pyridin-4-yl)-N-[1-(6-methylpyridin-2-yl)piperidin-4-yl]benzamide] | 2.3
Cc1cccnc1N1CCC(NC(=O)c2ccc(-c3nccc4occc34)cc2)CC1 [Example 153, 4-(furo[3,2-c]pyridin-4-yl)-N-[1-(3-methylpyridin-2-yl)piperidin-4-yl]benzamide] | 4.1
O=C(NC1CCN(c2ncc(Br)cn2)CC1)c1ccc(-c2nccc3occc23)cc1 [Example 154, N-[1-(5-bromopyrimidin-2-yl)piperidin-4-yl]-4-(furo[3,2-c]pyridin-4-yl)benzamide] | 6.3
Cc1ccnc(N2CCC(NC(=O)c3ccc(-c4nccc5occc45)cc3)CC2)n1 [Example 155, 4-(furo[3,2-c]pyridin-4-yl)-N-[1-(4-methylpyrimidin-2-yl)piperidin-4-yl]benzamide] | 1.5
Cc1cnc(N2CCC(NC(=O)c3ccc(-c4nccc5occc45)cc3)CC2)nc1 [Example 156, 4-(furo[3,2-c]pyridin-4-yl)-N-[1-(5-methylpyrimidin-2-yl)piperidin-4-yl]benzamide] | 1.6
O=C(NC1CCN(c2ncc(F)cn2)CC1)c1ccc(-c2nccc3occc23)cc1 [Example 157, N-[1-(5-fluoropyrimidin-2-yl)piperidin-4-yl]-4-(furo[3,2-c]pyridin-4-yl)benzamide] | 3
CCOC(=O)c1cnc(N2CCC(NC(=O)c3ccc(-c4nccc5occc45)cc3)CC2)nc1 [Example 158, Ethyl 2-{4-[4-(furo[3,2-c]pyridin-4-yl)benzamide]piperidin-1-yl}pyrimidine-5-carboxylate] | 0.69
O=C(NC1CCN(c2ccnc(F)c2)CC1)c1ccc(-c2nccc3occc23)cc1 [Example 159, N-[1-(2-fluoropyridin-4-yl)piperidin-4-yl]-4-(furo[3,2-c]pyridin-4-yl)benzamide] | 1.3
O=C(NC1CCN(c2ncc(CO)cn2)CC1)c1ccc(-c2nccc3occc23)cc1 [Example 160, 4-(furo[3,2-c]pyridin-4-yl)-N-{1-[5-(hydroxymethyl)pyrimidin-2-yl]piperidin-4-yl}benzamide] | 2.1
CN(C)c1ccnc(N2CCC(NC(=O)c3ccc(-c4nccc5occc45)cc3)CC2)n1 [Example 161, N-{1-[4-(dimethylamino)pyrimidin-2-yl]piperidin-4-yl}-4-(furo[3,2-c]pyridin-4-yl)benzamide] | 2
COc1ccnc(N2CCC(NC(=O)c3ccc(-c4nccc5occc45)cc3)CC2)n1 [Example 162, 4-(furo[3,2-c]pyridin-4-yl)-N-[1-(4-methoxypyrimidin-2-yl)piperidin-4-yl]benzamide] | 1.9
COc1cc(OC)nc(N2CCC(NC(=O)c3ccc(-c4nccc5occc45)cc3)CC2)n1 [Example 163] | 2.6
N#Cc1ccnc(N2CCC(NC(=O)c3ccc(-c4nccc5occc45)cc3)CC2)n1 [Example 164, N-[1-(4-cyanopyrimidin-2-yl)piperidin-4-yl]-4-(furo[3,2-c]pyridin-4-yl)benzamide] | 0.78
O=C(NC1CCN(c2ccnc(Cl)c2)CC1)c1ccc(-c2nccc3occc23)cc1 [Example 165, N-[1-(2-chloropyridin-4-yl)piperidin-4-yl]-4-(furo[3,2-c]pyridin-4-yl)benzamide] | 1.3
N#Cc1cc(N2CCC(NC(=O)c3ccc(-c4nccc5occc45)cc3)CC2)ccn1 [Example 166, N-[1-(2-cyanopyridin-4-yl)piperidin-4-yl]-4-(furo[3,2-c]pyridin-4-yl)benzamide] | 1
